Laboratory results taken from patent publication US4546076A, “Enzymatic process for the determination of beta-lactam antibiotics” (U C B Societe Anonyme, priority 1982, dated 1985).

Assays:
Assay type in all cases: biochemical
[1] = biological target: T1, D-alanyl-D-alanine-carboxypeptidase produced by Actinomadura R 39 (enzyme R 39), immobilized (Actinomadura sp., UniProt P39045); assay: Determination of penicillin G in milk with immobilized enzyme R 39 (Example 1); conditions: for coloration observed / optical density at 460 nm / optical density found minus optical density of the blank sample / percentage residual enzymatic activity: 1 ml milk; for percentage residual enzymatic activity: 20 min
T1 construct: which is excreted by Actinomadura R 39 when this microorganism; made in house; host or cells: Actinomadura R 39 (natural producer; deposit Institut Pasteur No. I-127), purified as in Frere et al., Biochem. J. 143 (1974) 233-240
T1 sequence (P39045 50-538): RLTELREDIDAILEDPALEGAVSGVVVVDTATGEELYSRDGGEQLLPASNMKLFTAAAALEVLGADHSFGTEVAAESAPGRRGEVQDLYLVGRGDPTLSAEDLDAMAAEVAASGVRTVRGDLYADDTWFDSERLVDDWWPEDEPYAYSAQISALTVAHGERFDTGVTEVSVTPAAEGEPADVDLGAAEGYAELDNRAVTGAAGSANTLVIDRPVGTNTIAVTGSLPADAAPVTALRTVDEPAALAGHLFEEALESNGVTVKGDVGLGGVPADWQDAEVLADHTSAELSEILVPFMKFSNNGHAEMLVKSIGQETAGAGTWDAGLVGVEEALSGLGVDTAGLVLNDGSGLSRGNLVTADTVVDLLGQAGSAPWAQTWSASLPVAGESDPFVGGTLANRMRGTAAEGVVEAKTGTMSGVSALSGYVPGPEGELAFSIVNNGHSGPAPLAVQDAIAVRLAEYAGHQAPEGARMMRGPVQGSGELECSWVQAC
Description: (§1) A series of 1 ml milk samples each containing a known concentration of penicillin G and two 1 ml milk samples (blank and control) not containing penicillin G are prepared.
(§2) 5.5 mg of immobilized enzyme R 39 (=3 picomols of enzyme) are added to each sample and the mixture is incubated for 20 minutes at 37° C.
(§3) The milk is then separated from the immobilized enzyme by filtration and the immobilized enzyme is washed three times with 1 ml of 0.1M Hepes buffer (pH=7.7) containing 0.1M NaCl and 0.05M MgCl2.
(§4) Either 20 μl of 0.1M Hepes buffer (pH=7.7) containing 0.1M NaCl and 0.05M MgCl2 and 10 μl of the substrate solution (in the case of the control sample and the samples containing penicillin G), or 20 μl of the Hepes buffer and 10 μl of water (in the case of the blank sample), are then added to the separated and washed immobilized enzyme. The mixture is incubated for 30 minutes at 37° C.
(§5) At the end of this incubation, 2 μl of the D-amino acid oxidase suspension, 60 μl of the FAD solution, 10 μl of the peroxidase solution and 5 μl of the o-dianisidine solution are added respectively to the product obtained; the mixture is then incubated again for 10 minutes at 37° C.
(§6) The optical density of the colored solutions obtained is then measured on a spectrophotometer. For this purpose, 1 ml of a methanol/water solution (proportions 1:1) is added to the cell and the optical density is measured at 460 nm.
(§7) The optical density value found for the blank sample is subtracted from the optical density values found respectively for the control sample and for the other samples. Finally, the percentage residual enzymatic activity is calculated for each sample from the optical density values thus obtained.

[2] = biological target: T1, D-alanyl-D-alanine-carboxypeptidase produced by Actinomadura R 39 (enzyme R 39), immobilized; assay: Determination of penicillin G in serum with immobilized enzyme R 39 (Example 2); conditions: 1 ml serum; for percentage residual enzymatic activity: 20 min
Description: as §1, §2, §3, §4, §5, §6, §7
(§8) The procedure of Example 1 is followed, using the same reagents but replacing the 1 ml milk samples by 1 ml serum or 1 ml urine samples.

[3] = biological target: T1, D-alanyl-D-alanine-carboxypeptidase produced by Actinomadura R 39 (enzyme R 39), immobilized; assay: Determination of penicillin G in urine with immobilized enzyme R 39 (Example 2); conditions: 1 ml urine; for percentage residual enzymatic activity: 20 min
Description: as §1, §2, §3, §4, §5, §6, §7, §8

[4] = biological target: T1, D-alanyl-D-alanine-carboxypeptidase produced by Actinomadura R 39 (enzyme R 39), immobilized; assay: Dosage of cephalosporin C in serum with immobilized enzyme R 39 (Example 3)
Description: as §1, §2, §3, §4, §5, §6, §7
The procedure of Example 1 is followed, using the same reagents but replacing the 1 ml milk samples by 1 ml serum samples containing each a known concentration of cephalosporin C.

[5] = biological target: T1, D-alanyl-D-alanine-carboxypeptidase produced by Actinomadura R 39 (enzyme R 39), immobilized; assay: Dosage of cephalosporin C in serum with immobilized enzyme R 39 at higher temperature (Example 4)
Description: The procedure of Example 3 is followed but each incubation is carried out at 47° C. and at half the time.
Moreover, to each ml sample of serum, there is previously added 100 μl of 0.5M (pH 7.7) Hepes buffer containing 0.5M NaCl and 0.25M MgCl2.

[6] = penicillin G 0.0005 I.U./ml, 1st series
[7] = penicillin G 0.0005 I.U./ml, 2nd series
[8] = penicillin G 0.0010 I.U./ml, 1st series
[9] = penicillin G 0.0010 I.U./ml, 2nd series
[10] = penicillin G 0.0015 I.U./ml, 2nd series
[11] = penicillin G 0.0020 I.U./ml, 1st series
[12] = penicillin G 0.0020 I.U./ml, 2nd series
[13] = penicillin G 0.0041 I.U./ml, 1st series
[14] = penicillin G 0.0082 I.U./ml, 1st series
[15] = cephalosporin C 1 ng/ml, 1 ml serum, 37° C.
[16] = cephalosporin C 2 ng/ml, 1 ml serum, 37° C.
[17] = cephalosporin C 10 ng/ml, 1 ml serum, 37° C.
[18] = cephalosporin C 1 ng/ml, 1 ml serum, each incubation at 47° C. and half the time
[19] = cephalosporin C 2 ng/ml, 1 ml serum, each incubation at 47° C. and half the time
[20] = cephalosporin C 10 ng/ml, 1 ml serum, each incubation at 47° C. and half the time

## CC1(C)S[C@@H]2[C@H](NC(=O)Cc3ccccc3)C(=O)N2[C@H]1C(=O)O [penicillin G, benzylpenicillin]
[1]; [6]
  coloration observed: brown
  optical density at 460 nm: 0.170
  optical density found minus optical density of the blank sample: 0.135
  percentage residual enzymatic activity: 82%
[1]; [7]
  coloration observed: yellow-brown
  optical density at 460 nm: 0.145
  optical density found minus optical density of the blank sample: 0.110
  percentage residual enzymatic activity: 69%
[1]; [8]
  coloration observed: yellow-brown
  optical density at 460 nm: 0.150
  optical density found minus optical density of the blank sample: 0.115
  percentage residual enzymatic activity: 69%
[1]; [9]
  coloration observed: yellow-brown
  optical density at 460 nm: 0.100
  optical density found minus optical density of the blank sample: 0.065
  percentage residual enzymatic activity: 41%
[1]; [10]
  coloration observed: yellow
  optical density at 460 nm: 0.055
  optical density found minus optical density of the blank sample: 0.020
  percentage residual enzymatic activity: 12%
[1]; [11]
  coloration observed: light yellow
  optical density at 460 nm: 0.035
  optical density found minus optical density of the blank sample: 0.000
  percentage residual enzymatic activity: 0%
[1]; [12]
  coloration observed: light yellow
  optical density at 460 nm: 0.040
  optical density found minus optical density of the blank sample: 0.005
  percentage residual enzymatic activity: 3%
[1]; [13]
  coloration observed: light yellow
  optical density at 460 nm: 0.040
  optical density found minus optical density of the blank sample: 0.005
  percentage residual enzymatic activity: 3%
[1]; [14]
  coloration observed: light yellow
  optical density at 460 nm: 0.035
  optical density found minus optical density of the blank sample: 0.000
  percentage residual enzymatic activity: 0%
[1]; sample containing 0.002 I.U. or more per ml of milk
  residual enzymatic activity: zero
[2]
  concentration determined visually (light yellow coloration): at least 0.003 I.U./ml
[2]; penicillin G 0.003 I.U./ml
  coloration observed: light yellow
  optical density at 460 nm: 0.035
  optical density found minus optical density of the blank sample: 0.005
  percentage residual enzymatic activity: 4%
[2]; penicillin G 0.010 I.U./ml
  coloration observed: light yellow
  optical density at 460 nm: 0.030
  optical density found minus optical density of the blank sample: 0.000
  percentage residual enzymatic activity: 0%
[3]
  concentration determined visually (light yellow coloration): at least 0.003 I.U./ml
[3]; penicillin G 0.003 I.U./ml
  coloration observed: light yellow
  optical density at 460 nm: 0.040
  optical density found minus optical density of the blank sample: 0.010
  percentage residual enzymatic activity: 8%
[3]; penicillin G 0.010 I.U./ml
  coloration observed: light yellow
  optical density at 460 nm: 0.035
  optical density found minus optical density of the blank sample: 0.005
  percentage residual enzymatic activity: 4%

## CC(=O)OCC1=C(C(=O)O)N2C(=O)[C@@H](NC(=O)CCC[C@@H](N)C(=O)O)[C@H]2SC1 [cephalosporin C]
[4]; 20 min, read-out: percentage residual enzymatic activity
  remaining activity at 0.001 µg/mL: 44%
[4]; 20 min, cephalosporin C 2 ng/ml, 1 ml serum, 37° C., read-out: percentage residual enzymatic activity
  remaining activity at 0.002 µg/mL: 8%
[4]; 20 min, cephalosporin C 10 ng/ml, 1 ml serum, 37° C., read-out: percentage residual enzymatic activity
  remaining activity at 0.01 µg/mL: 0%
[4]; [15]
  coloration observed: light yellow
  optical density at 460 nm: 0.085
  optical density found minus optical density of the blank sample: 0.055
[4]; [16]
  coloration observed: light yellow
  optical density at 460 nm: 0.040
  optical density found minus optical density of the blank sample: 0.010
[4]; [17]
  coloration observed: light yellow
  optical density at 460 nm: 0.030
  optical density found minus optical density of the blank sample: 0.000
[5]; 10 min, read-out: percentage residual enzymatic activity
  remaining activity at 0.01 µg/mL: 0%
[5]; 10 min, cephalosporin C 1 ng/ml, 1 ml serum, each incubation at 47° C. and half the time, read-out: percentage residual enzymatic activity
  remaining activity at 0.001 µg/mL: 41%
[5]; 10 min, cephalosporin C 2 ng/ml, 1 ml serum, each incubation at 47° C. and half the time, read-out: percentage residual enzymatic activity
  remaining activity at 0.002 µg/mL: 0%
[5]; [18]
  coloration observed: light brown
  optical density at 460 nm: 0.095
  optical density found minus optical density of the blank sample: 0.060
[5]; [19]
  coloration observed: light yellow
  optical density at 460 nm: 0.035
  optical density found minus optical density of the blank sample: 0.000
[5]; [20]
  coloration observed: light yellow
  optical density at 460 nm: 0.040
  optical density found minus optical density of the blank sample: 0.005
